# Test results taken from patent US8241607B2, “Use of fructose-based compounds for the diagnosis of cancer” (priority 2005, dated 2012).
# Test system: MAPK pathway
# Test: Western blot of MAPK pathway in breast cancer cells
# Type: cell-based
# Description: FIG. 11 depicts increased breast cancer phosphorylated-MEK, phosphorylated Rsk, and phosphorylated CREB in accordance with an embodiment of the present invention. MCF-7 breast cancer cells were incubated in 2 mM glucose, 5 mM glucose or 5 mM fructose for 24 hours, after which Western blot analysis on total protein lysates was employed to examine components of the MAP kinase pathway. […] Total MEK, Rsk, and CREB levels, and β-actin served as loading controls.
# Although several signal transduction pathways are likely involved in the fructose-mediated enhanced breast cancer growth and while not wishing to be bound by any particular theory, the inventors believe that the MAP-kinase pathway is involved. The inventors have used Western blot analysis to examine the MAPK pathway in breast cancer cells incubated in 2 mM glucose, 5.5 mM glucose, and 5.5 mM fructose for 48 hours. […] Activation of MEK, and subsequently ERK results in phosphorylation of p90^Rsk, which leads to transcriptional activation of CREB and AP1, which bind to cAMP or AP1 response elements respectively, activating gene transcription and promoting cellular growth.
# [1] = breast cancer cells, 5.5 mM fructose, 24 h, vs 5.5 and 2 mM glucose
structure (smiles),measurement,setting,value
O=C(CO)[C@@H](O)[C@H](O)[C@H](O)CO [fructose],phospho-MEK (pMEK) expression,"MCF-7 and MDA-MB231, 5.5 mM fructose vs 5.5 and 2 mM glucose",increased expression
same,phospho-CREB (pCREB),[1],increased
same,phospho-Rsk (pRsk),[1],increased
